Experiments:
Type in all cases: biochemical
JAK2 = target: T1, JAK2 (Homo sapiens, UniProt O60674); experiment: Functional assay of protein kinases (Caliper mobility shift), JAK2; conditions: ATP 300 μM, 30 min incubation
T1 construct: purchased Carna Biosciences 08-045
Protocol: (§1) Functional Assays of Protein Kinases
(§2) The functional assays of protein kinases were carried out in 384-well plates using a final volume of 30 μl. […] The reaction was reads in a “Caliper EzReader LabChip 3000” (Caliper, Hopkinton, Mass.) reader, based on electrophoretic mobility of the fluorescent substrate and the phosphorylated product.
(§3) The inhibition percentages were calculated by comparison between control reactions, for 100% of inhibition and reactions with only DMSO for 0% of inhibition.

JAK1 = target: T2, JAK1 (Homo sapiens, UniProt P23458); experiment: Functional assay of protein kinases (Caliper mobility shift), JAK1; conditions: ATP 100 μM, 150 min incubation
T2 construct: purchased Carna Biosciences 08-144
Protocol: as §1, §2, §3

Human MLK3 = target: T3, Human MLK3 (Homo sapiens, UniProt Q16584); experiment: MLK3 activity inhibition test (Reaction Biology kit, 33P ATP filter assay); conditions: MBP 10 μM, ATP 10 μM
T3 construct: purchased Reaction Biology MLK3
Protocol: MLK3 Activity Inhibition Test
Activity test was carried out using the kit from Reaction Biology (CAT #: MLK3). The test uses enzyme Human MLK3 and substrates are MBP (Myelin Basic Protein, HGNC ID:6925) 10 μM and ATP 10 μM. Other reagents are the following: Base Reaction buffer; 20 mM Hepes (pH 7.5), 10 mM MgCl2, 1 mM EGTA, 0.02% Brij35, 0.02 mg/ml BSA, 0.1 mM Na3VO4, 2 mM DTT, 1% DMSO.
The reaction was carried out following the instructions of manufacturer. Briefly, kinase/substrate pairs were prepared in reaction buffer. Compounds were delivered into the reaction, followed 20 minutes later by addition of a mixture of ATP (Sigma, St. Louis Mo.) and ^33P ATP (Perkin Elmer, Waltham Mass.) to a final concentration of 10 μM. Reactions were carried out at room temperature for 120 min, followed by spotting of the reactions onto P81 ion exchange filter paper (Whatman Inc., Piscataway, N.J.). Unbound phosphate was removed by extensive washing of filters in 0.75% phosphoric acid. […] IC50 values and curve fits were obtained using Prism (GraphPad Software).

TYK2 = target: T4, TYK2 (Homo sapiens, UniProt P29597); experiment: Functional assay of protein kinases (Caliper mobility shift), TYK2; conditions: ATP 20 μM, 45 min incubation
T4 construct: purchased Carna Biosciences 08-147
T4 sequence (P29597 871-1187 limits assumed): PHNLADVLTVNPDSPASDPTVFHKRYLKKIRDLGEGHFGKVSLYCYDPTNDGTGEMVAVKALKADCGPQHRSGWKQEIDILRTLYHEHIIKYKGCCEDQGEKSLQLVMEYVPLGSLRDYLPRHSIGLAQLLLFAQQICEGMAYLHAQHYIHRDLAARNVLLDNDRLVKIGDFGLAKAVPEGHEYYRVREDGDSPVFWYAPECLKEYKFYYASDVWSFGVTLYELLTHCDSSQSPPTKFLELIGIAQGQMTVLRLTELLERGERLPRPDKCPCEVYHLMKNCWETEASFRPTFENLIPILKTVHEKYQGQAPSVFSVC
Protocol: as §1, §2, §3

JAK3 = target: T5, JAK3 (Homo sapiens, UniProt P52333); experiment: Functional assay of protein kinases (Caliper mobility shift), JAK3; conditions: ATP 8 μM, 30 min incubation
T5 construct: purchased Carna Biosciences 08-046
Protocol: as §1, §2, §3

T2 sequence (P23458 850-1154 limits assumed): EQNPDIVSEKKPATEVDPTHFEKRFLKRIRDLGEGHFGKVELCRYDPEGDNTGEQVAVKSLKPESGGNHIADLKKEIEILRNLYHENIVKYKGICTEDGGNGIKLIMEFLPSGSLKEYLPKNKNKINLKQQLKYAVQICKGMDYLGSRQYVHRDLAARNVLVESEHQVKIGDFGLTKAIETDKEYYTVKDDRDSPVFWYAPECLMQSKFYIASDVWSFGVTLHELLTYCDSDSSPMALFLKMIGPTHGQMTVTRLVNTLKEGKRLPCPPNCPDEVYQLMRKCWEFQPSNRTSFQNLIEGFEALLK
T5 sequence (P52333 795-1124 limits assumed): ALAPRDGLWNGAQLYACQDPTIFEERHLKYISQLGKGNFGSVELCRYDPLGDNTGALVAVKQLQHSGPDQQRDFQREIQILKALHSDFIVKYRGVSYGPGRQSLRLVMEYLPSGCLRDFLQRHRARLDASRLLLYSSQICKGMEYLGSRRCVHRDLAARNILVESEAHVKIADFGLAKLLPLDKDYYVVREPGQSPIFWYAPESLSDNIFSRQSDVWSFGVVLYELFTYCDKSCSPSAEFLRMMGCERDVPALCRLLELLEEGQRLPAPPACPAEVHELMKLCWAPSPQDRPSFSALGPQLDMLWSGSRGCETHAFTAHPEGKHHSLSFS
T1 sequence (O60674 826-1132 limits assumed): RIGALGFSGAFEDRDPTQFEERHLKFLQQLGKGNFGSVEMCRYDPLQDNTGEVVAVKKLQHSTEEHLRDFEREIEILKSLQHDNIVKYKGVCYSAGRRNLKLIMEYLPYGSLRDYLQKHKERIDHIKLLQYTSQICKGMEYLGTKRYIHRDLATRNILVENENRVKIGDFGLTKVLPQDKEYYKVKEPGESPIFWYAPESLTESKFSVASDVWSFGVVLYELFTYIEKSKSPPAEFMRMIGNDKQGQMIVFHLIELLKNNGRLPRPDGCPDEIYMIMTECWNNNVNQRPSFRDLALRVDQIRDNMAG
T3 sequence (Q16584 whole entry): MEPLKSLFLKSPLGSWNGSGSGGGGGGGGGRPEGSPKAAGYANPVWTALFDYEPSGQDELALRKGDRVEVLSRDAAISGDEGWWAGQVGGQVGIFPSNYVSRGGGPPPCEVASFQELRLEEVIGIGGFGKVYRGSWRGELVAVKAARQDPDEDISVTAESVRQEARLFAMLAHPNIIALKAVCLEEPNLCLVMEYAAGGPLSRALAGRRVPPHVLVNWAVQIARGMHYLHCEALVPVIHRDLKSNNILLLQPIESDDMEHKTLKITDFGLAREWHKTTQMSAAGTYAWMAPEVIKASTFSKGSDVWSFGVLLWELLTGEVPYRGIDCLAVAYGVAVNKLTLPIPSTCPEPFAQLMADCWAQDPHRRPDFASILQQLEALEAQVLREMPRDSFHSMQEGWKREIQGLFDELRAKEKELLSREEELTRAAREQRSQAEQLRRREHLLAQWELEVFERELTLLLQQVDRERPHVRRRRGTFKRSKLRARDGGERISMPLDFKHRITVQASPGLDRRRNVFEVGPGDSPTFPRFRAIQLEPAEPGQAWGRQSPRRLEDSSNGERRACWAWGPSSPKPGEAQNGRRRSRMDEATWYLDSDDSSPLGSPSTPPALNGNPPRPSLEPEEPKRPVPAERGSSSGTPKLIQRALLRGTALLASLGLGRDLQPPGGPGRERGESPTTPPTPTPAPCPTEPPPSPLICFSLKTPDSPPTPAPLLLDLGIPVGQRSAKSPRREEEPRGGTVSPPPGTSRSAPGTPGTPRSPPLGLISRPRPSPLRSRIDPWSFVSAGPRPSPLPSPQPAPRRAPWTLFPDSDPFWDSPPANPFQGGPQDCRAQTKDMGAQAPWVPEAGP

Structure (SMILES)	IC50 (JAK2) [nM]	IC50 (JAK1) [nM]	IC50 (Human MLK3) [nM]	IC50 (TYK2) [nM]	IC50 (JAK3) [nM]
O=C(N[C@H]1CC[C@@H](C(=O)O)CC1)c1cccn2c(=O)c3cc(N4CCOCC4)ccc3nc12 [Example 14, (1S,4S)-4-(2-morpholino-11-oxo-11H-pyrido[2,1-b]quinazoline-6-carboxamido)cyclohexane-1-carboxylic acid]	≥ 1000	≥ 1000	< 100	< 100	< 100
O=C(N[C@H]1CC[C@@H](C(=O)O)CC1)c1cccn2c(=O)c3cc(-c4ccc(F)cc4)ccc3nc12 [Example 16, (1S,4S)-4-(2-(4-fluorophenyl)-11-oxo-11H-pyrido[2,1-b]quinazoline-6-carboxamido)cyclohexane-1-carboxylic acid]	≥ 1000	≥ 1000	< 100	< 100	< 100
O=C(N[C@H]1CC[C@@H](C(=O)O)CC1)c1cccn2c(=O)c3cc(-c4ccncc4)ccc3nc12 [Example 17, (1S,4S)-4-(11-oxo-2-(pyridin-4-yl)-11H-pyrido[2,1-b]quinazoline-6-carboxamido)cyclohexane-1-carboxylic acid]	≥ 1000	≥ 1000	< 100	< 100	< 100
N#Cc1ccc2nc3c(C(=O)NC4CCC(C(=O)O)CC4)cccn3c(=O)c2c1 (centres unmarked) [Example 21, 4-(2-cyano-11-oxo-11H-pyrido[2,1-b]quinazoline-6-carboxamido)cyclohexane-1-carboxylic add]	≥ 1000	≥ 1000	≥ 1000	≥ 1000	100 to 1000

Source: US20200079773A1, “CARBOXYLIC ACID DERIVATIVES OF PYRIDOQUINAZOLINES USEFUL AS PROTEIN KINASE INHIBITORS” (ONCOSTELLAE, S.L., priority 2017, published 2020)
